Results taken from patent publication US12172992B2, “Pyrimidines for degrading Bruton's tyrosine kinase” (AbbVie Inc., priority 2022, dated 2024).

Molecular target: BTK protein in human whole blood (Homo sapiens (Human), UniProt Q06187)
Assay: Btk protein in human whole blood MSD ELISA based assay (BTK degradation)
Format: cell-based
Conditions: 6 hours, maximum BTK degradation compared to DMSO only treated samples, read-out: hWB BTK dMax (%)

Sequence of BTK protein in human whole blood (Q06187 whole entry): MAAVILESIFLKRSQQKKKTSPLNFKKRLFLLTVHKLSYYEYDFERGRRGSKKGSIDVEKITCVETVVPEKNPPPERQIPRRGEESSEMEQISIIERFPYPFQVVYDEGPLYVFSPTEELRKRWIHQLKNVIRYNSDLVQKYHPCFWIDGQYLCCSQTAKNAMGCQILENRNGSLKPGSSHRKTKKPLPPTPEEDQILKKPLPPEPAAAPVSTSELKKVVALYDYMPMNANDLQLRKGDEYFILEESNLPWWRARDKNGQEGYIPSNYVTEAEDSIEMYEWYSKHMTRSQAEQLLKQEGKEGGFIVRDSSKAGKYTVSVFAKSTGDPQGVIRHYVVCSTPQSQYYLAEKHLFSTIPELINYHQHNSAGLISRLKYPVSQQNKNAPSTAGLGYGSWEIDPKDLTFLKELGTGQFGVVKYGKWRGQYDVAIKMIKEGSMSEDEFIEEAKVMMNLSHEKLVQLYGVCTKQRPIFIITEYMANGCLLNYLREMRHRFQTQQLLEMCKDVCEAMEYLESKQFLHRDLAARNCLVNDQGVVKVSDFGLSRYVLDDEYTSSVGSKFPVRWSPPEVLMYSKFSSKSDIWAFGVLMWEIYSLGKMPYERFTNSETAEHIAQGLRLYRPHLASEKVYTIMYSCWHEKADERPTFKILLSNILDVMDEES

Cc1cc(-c2cc(Nc3ccc(N4CCN(CCc5ccc(N6CCC(=O)NC6=O)cc5)C[C@@H]4C)cn3)ncn2)ccc1[C@@H](C)NC(=O)c1nc(C(C)(C)C)no1 [Example 1, 3-tert-butyl-N-[(1R)-1-{4-[6-({5-[(2S)-4-{2-[4-(2,4-dioxo-1,3-diazinan-1-yl)phenyl]ethyl}-2-methylpiperazin-1-yl]pyridin-2-yl}amino)pyrimidin-4-yl]-2-methylphenyl}ethyl]-1,2,4-oxadiazole-5-carboxamide]
Dmax: 100%
